Results on one molecule are retold here after PMC10518255, “A first-in-class pan-lysyl oxidase inhibitor impairs stromal remodeling and enhances gemcitabine response and survival in pancreatic cancer” (Nature Cancer, 2023).

“And” between values parts separate entries of the source, which are not always exact repeats. Equal entries are not always repeated.

One test concerns KPC CAFs. The test can be described thus: 3D organotypic matrix contraction assay. It is filed as cell-based, mouse. On the set-up: measured area of matrices: unit not given here. The following applies: for measured area of matrices: per replicate, n = 3. The method, then: (§1) Fig. 3 PXS-5505 inhibition of CAF remodeling in vitro. a, Quantitative PCR with reverse transcription (qRT–PCR) showing in vitro comparison of KPC CAF relative expression of lysyl oxidase family members compared to KPC CCs from the same model (n = 3 biologically independent samples). Comparisons were determined by 2^–∆∆Ct approach. b, Representative images of 3D organotypic matrix contraction assay at days 2, 6 and 12 in the absence (gray) or presence (pink) of PXS-5505 (30 µM). Scale bars, 5 mm. Comparison of measured area of matrices between control and PXS-5505 treatment groups over time (n = 3 technical samples examined over three biologically independent samples). Data are mean ± s.d. c, Concentration of immature divalent DHLNL and mature trivalent Pyr collagen crosslinks determined by LC–MS from control and PXS-5505-treated organotypic matrices at day 12 (n = 3 technical samples examined over two biologically independent samples). Data are mean ± s.d. […] Data are presented as mean ± s.d. […] Comparison of number of CCs invaded per field of view (FOV) as determined by H&E and PanCK staining (nine images taken from three technical samples from each of three biologically independent contracted matrices), normalized to control. Data are mean ± s.d. Scale bars, 100 μm. […] Source data
(§2) High-purity rat tail collagen for 3D organotypic assays was acid extracted following previously published methodology. The 12-day organotypic assays were carried out as described previously. In brief, 2 × 10^5 KPC CAFs were embedded in 2.5 ml 1.5 mg ml^−1 rat tail collagen and allowed to remodel for 12 days in a six-well plate in DMEM supplemented with 10% FBS and 1% penicillin–streptomycin in 21% O2/5% CO2 (Extended Data Fig. 4a). For human pancreatic cancer CAFs, 3.45 × 10^5 cells were embedded into 1.25 ml 1.5 mg ml^−1 rat tail collagen and allowed to remodel for 12 days in a 12-well plate in IMDM supplemented with 4 mM glutamine and 10% FBS in 21% O2/5% CO2.
(§3) Extended Data Fig. 4 PXS-5505 inhibits collagen cross-linking by PDAC CAFs in vitro resulting in decreased cancer cell invasion. a. Schematic of organotypic matrix remodeling assay whereby CAFs are embedded into a 3D collagen matrix and growth media supplemented with or without PXS-5505 to inhibit lysyl oxidase family activity b. Chemical structures of lysyl oxidase family catalyzed hydroxyallysine or allysine residues and the subsequent divalent and trivalent bonds that are formed that can be quantified by mass spectrometry. c. Representative images of 3D organotypic matrix contraction by human pancreatic cancer CAFs at days 2, 6 and 12 in the absence (gray) and presence (pink) of PXS-5505 (30 µM). Scale bars = 5 mm. […] Data presented as mean values +/− SD. d. […] Data presented as mean values +/− SD. Relative fold expression of LOXL family members compared to LOX were determined by 2^–∆∆Ct approach. f. Schematic of cancer cell invasion in a 3D organotypic matrix assay whereby cancer cells are seeded to the surface of a remodeled collagen plug and placed at an air–liquid interface and allowed to invade into the remodeled matrix. […] Scale bars = 100 μm. g. […] Representative images of 3D organotypic matrix contraction assay at days 2, 6 and 12 of control (gray) and presence of PXS-5120 (blue) and PXS-5505 (pink). Scale bars = 5 mm. Comparison of measured area of matrices between control, PXS-5120 and PXS-5505 treatment groups (n = 3) over time. i. […] Representative images of invasion of KPC cancer cells into a contracted organotypic matrix as determined by H&E staining. […] Source data

Test [1] deals with human pancreatic cancer CAFs. The test can be described thus: 3D organotypic matrix contraction assay. Format: cell-based. On the set-up: area of matrices: unit not given here. The following applies: for area of matrices: single replicates. As to the method: as §2, §3
For test [2], the system named is collagen crosslinks (DHLNL, Pyr) in KPC CAF organotypic matrices. The test can be described thus: Collagen crosslink quantification by LC-MS in organotypic matrices. It is filed as cell-based, mouse. As to the method: as §1, with “([…]).” for “(n = 3 technical samples examined over two biologically independent samples).”
KPC CAFs embedded in 3D organotypic matrices remodel and crosslink them.
Collagen matrices were freeze dried and reduced with NaBH4. The resulting pellet was hydrolyzed with 6 mol l^−1 HCl at 100 °C for 24 h. An automated solid phase extraction system (Gilson GX-271 ASPECA system) was used to extract hydroxyproline and crosslinks from the hydrolysate. The samples were analyzed for hydroxyproline crosslinks by a UHPLC–ESI–MS/MS on a Thermo Dionex UPHPLC and TSQ Endura triple quadmass spectrometer as previously published. The lower limit of detection was 0.013 pmol 10 µl^−1.

Setting [3] is: LC/MS, organotypic matrices at day 12, single replicates (3 biological x 2 technical).
Where [4] appears, read: day 12, normalized to total collagen content.

Regarding `Cl.Cl.NC/C=C(\F)CS(=O)(=O)c1cccc2cccnc12.O` [PXS-5505, (Z)-3-fluoro-4-(quinolin-8-ylsulfonyl)but-2-en-1-amine dihydrochloride monohydrate], the matrix contraction result with KPC CAFs (KPC CAFs, PXS-5505 30 µM, days 2, 6 and 12) is “no macroscopic effect on matrix contraction”; in test [1] (human pancreatic cancer CAFs, PXS-5505 30 µM), “no effect on CAF ability to contract matrices”. Further, the “measured area of matrices” value in the test with KPC CAFs (time 0 (unit of time not given)) was 9.616; in the test on KPC CAFs (time 1 (unit of time not given)), 9.616; with KPC CAFs (time 2 (unit of time not given)), 9.561 and 9.616 (2×); with KPC CAFs (time 3 (unit of time not given)) it was 9.0213 and 9.561 and 9.616; in the test on KPC CAFs (time 4 (unit of time not given)), 6.466 and 5.808 and 8.601; in the test with KPC CAFs (time 5 (unit of time not given)), 4.597 and 3.696 and 6.971. Also, the “measured area of matrices” value in the test on KPC CAFs (time 6 (unit of time not given)) was 3.299 and 2.6 and 5.471; in the test with KPC CAFs (time 7 (unit of time not given)) it was 2.954 and 2.216 and 4.409; in the test with KPC CAFs (time 8 (unit of time not given)), 2.6 and 1.886 and 3.595; in the test on KPC CAFs (time 9 (unit of time not given)), 1.96 and 1.5386 and 2.216; with KPC CAFs (time 10 (unit of time not given)), 1.327 and 1.266 and 1.583; in the test on KPC CAFs (time 11 (unit of time not given)), 1.149 and 1.168 and 1.41. The “measured area of matrices” value in the test on KPC CAFs (time 12 (unit of time not given)) is 1.075 and 1.112 and 1.188. Also, the area of matrices is 3.834 in test [1] (time 0); 3 and 2.954 and 2.863 and 2.88 and 3.193 (2×) and 3.06 and 3.1 and 3.113 in test [1] (time 6); 2.446 and 2.524 and 2.482 and 2.6253 and 2.773 and 2.7357 and 2.554 (2×) and 2.298 in test [1] (time 10); 2.093 and 2.049 and 2.109 and 2.548 and 2.951 and 2.912 and 2.791 (2×) and 2.892 in test [1] (time 12). In addition, the “Concentration of immature divalent dihyroxylysinonorleucine (DHLNL) collagen cross-links” value in test [2] (setting [3]) is 2.81 pmol/mL and 3.555 pmol/mL and 2.615 pmol/mL and 4.105 pmol/mL and 3.075 pmol/mL and 4.4 pmol/mL. Further, in test [2] (setting [3]), the “Concentration of mature trivalent hydroxylysylpyridinoline (Pyr, PYD) collagen cross-links” value is 4.5 pmol/mL and 5.52 pmol/mL and 3.85 pmol/mL and 8.4 pmol/mL and 6.325 pmol/mL and 6.2 pmol/mL. The “immature divalent DHLNL collagen crosslinks” value in test [2] (setting [4]) is given as “decreases”. In test [2] (setting [4]), the “mature trivalent Pyr collagen crosslinks” value was “decreases”.
